In US6225334A (priority 1996, dated 2001):
Like-named read-outs stand apart in the source and are kept apart here.

Assays:
logP (HPLC) = type: physicochemical
Plasmopara viticola = assay: Plasmopara-Test (Grapevines)/protective; type: in vivo; conditions: application rate of 50 g/ha, 6 days after the inoculation, protective
[1] = test system: beet army-worm (Spodoptera frugiperda); assay: Spodoptera test; type: in vivo; conditions: 216 h, active compound concentration of 0.05%, after 9 days, larvae L2-L3 on synthetic feed, read-out: kill
Description: 100 parts by weight of acetone
1900 parts by weight of methanol
A stated amount of the preparation of active compound of the desired concentration is pipetted onto a standardized amount of synthetic feed. In 3 replications, one larva (L2 -L3) each of the beet army-worm (Spodoptera frugiperda) is placed on the feed.
After the desired period of time, the kill in % is determined.

Phytophthora infestans = type: in vivo; conditions: 3 days after the inoculation, tomato, protective
[2] = test system: greenhouse red spider mite (Tetranychus urticae); assay: Tetranychus-Test (OP-resistant/dip treatment); conditions: 168 h, read-out: kill
Description: 7.5 parts by weight of dimethylformamide
100 parts by weight of methanol
Emulsifier: 2.5 parts by weight of alkylaryl polyglycol ether
After the desired period of time, the activity in % is determined. 100% means that all spider mites have been killed; 0% means that none of the spider mites have been killed.

[3] = first of two values printed (x/y)

| Structure (SMILES) | chromatographic logP (logP (HPLC); [3]) | chromatographic logP (logP (HPLC); second of two values) | other results |
| --- | --- | --- | --- |
| CCON=C(C(=O)NCCc1ccc(OC)c(OC)c1)c1ccc2c(c1)Cc1ccccc1C2 [Example IV-1] | – | – | chromatographic logP (logP (HPLC); e isomer): 3.62; chromatographic logP (logP (HPLC); z isomer): 4 |
| COc1ccc(CCNC(=O)C(=NOC(=O)OC2CCCCC2)c2ccc3c(c2)CCCC3)cc1OC [Example I-6] | 4.2 | 4.62 | – |
| COc1ccc(CCNC(=O)C(=NOC(=O)c2ccccc2)c2ccc3c(c2)CCCC3)cc1OC [Example I-7] | 3.69 | 4.1 | – |
| CON=C(C(=O)NCCc1ccc(OC)c(OC)c1)c1ccc2c(c1)Cc1ccccc1C2 [IV-4] | 3.31 | 3.68 | – |
| CON=C(C(=S)NCCc1ccc(OC)c(OC)c1)c1ccc(C)cc1 [II-3] | 3.15 | 3.41 | – |
| CCOC(=O)ON=C(C(=O)NCCc1ccc(OC)c(OC)c1)c1ccc(Br)cc1 [Example I-10] | – | – | chromatographic logP (logP (HPLC); single value given): 3.19 |
| CCc1ccc(C(=NOC(C)=O)C(=O)NCCc2ccc(OC)c(OC)c2)cc1 [Example I-16] | 2.42 | 2.6 | – |
| COc1ccc(CCNC(=O)C(=NOC(C)=O)c2ccc3c(c2)CCC3)cc1OC [Example I-12] | 2.65 | 2.87 | – |
| CCON=C(C(=S)NCCc1ccc(OC)c(OC)c1)c1ccc2c(c1)CCC2 [II-10] | 3.87 | 4.13 | – |
| CON=C(C(=S)NCCc1ccc(OC)c(OC)c1)c1ccc(Br)cc1 [II-6] | 3.5 | 3.8 | efficacy compared to the untreated control (Plasmopara viticola): 89% |
| CCOC(=O)ON=C(C(=O)NCCc1ccc(OC)c(OC)c1)c1ccc2c(c1)CCCC2 [Example I-3] | 3.19 | 3.55 | – |
| CCc1ccc(C(=NOC)C(=S)NCCc2ccc(OC)c(OC)c2)cc1 [II-4] | 3.5 | 3.77 | mortality at 0.05 % [1]: 100% |
| CON=C(C(=O)NCCc1ccc(OC)c(OC)c1)c1ccc2c(c1)CCc1ccccc1C2 [IV-2] | 3.61 | 3.87 | efficacy compared to the untreated control (Phytophthora infestans; application rate of 50 g/ha): 96% |
| CON=C(C(=O)NCCc1ccc(OC)c(OC)c1)c1ccc2c(c1)OCC2 [III-2] | 2.24 | 2.46 | – |
| CCON=C(C(=S)NCCc1ccc(OC)c(OC)c1)c1ccc(Br)cc1 [II-5] | 3.82 | 4.14 | – |
| COc1ccc(CCNC(=O)C(=NOC(=O)Oc2ccccc2)c2ccc3c(c2)CCCC3)cc1OC [Example I-5] | 3.82 | 4.09 | – |
| CCOC(=O)ON=C(C(=O)NCCc1ccc(OC)c(OC)c1)c1ccc(CC)cc1 [Example I-15] | – | – | chromatographic logP (logP (HPLC); single value given): 2.98 |
| CCON=C(C(=S)NCCc1ccc(OC)c(OC)c1)c1cccc(CC)c1 [II-8] | 3.82 | 4.09 | – |
| CCON=C(C(=S)NCCc1ccc(OC)c(OC)c1)c1ccc2c(c1)CCCC2 [II-2] | 4.13 | 4.41 | – |
| CCON=C(C(=O)NCCc1ccc(OC)c(OC)c1)c1ccc2c(c1)CCc1ccccc1C2 [IV-3] | 3.91 | 4.2 | efficacy compared to the untreated control (Phytophthora infestans; application rate of 50 g/ha): 96% |
| CCON=C(C(=O)NCCc1ccc(OC)c(OC)c1)c1ccc(Cl)cc1 [Example II-II-1] | – | – | chromatographic logP (logP (HPLC); e isomer): 3.07; chromatographic logP (logP (HPLC); z isomer): 3.34 |
| CCc1ccc(C(=NOC(=O)OC)C(=O)NCCc2ccc(OC)c(OC)c2)cc1 [Example I-14] | 2.73 | 2.94 | mortality at 0.05 % [2]: 100% |
| CCON=C(C(=O)NCCc1ccc(OC)c(OC)c1)c1ccc2c(c1)OCC2 [Example III-1, N-[2-(3,4dimethoxyphenyl)-ethyl]-2-(2,3-dihydrobenzofuran-6-yl)2-ethoximino-acetamide] | – | – | efficacy compared to the untreated control (Phytophthora infestans; application rate of 500 g/ha): 95% |
| CCOC(=O)ON=C(C(=O)NCCc1ccc(OC)c(OC)c1)c1ccc2c(c1)CCC2 [Example I-13] | 3.04 | 3.27 | – |
| CCON=C(C(=S)NCCc1ccc(OC)c(OC)c1)c1ccc(Cl)cc1 [Example II-1, N-[2-(3,4-dimethoxyphenyl)-ethyl]-2-ethoximino-2-(4-chlorophenyl)-thioacetamide] | – | – | chromatographic logP (logP (HPLC); e isomer): 3.73; chromatographic logP (logP (HPLC); z isomer): 4.03 |
| COC(=O)ON=C(C(=O)NCCc1ccc(OC)c(OC)c1)c1ccc2c(c1)CCC2 [Example I-11] | 2.78 | 2.97 | – |
| COc1ccc(CCNC(=O)C(=NOC(C)=O)c2ccc3c(c2)CCCC3)cc1OC [Example I-1, N-[(3,4-dimethoxyphenyl)-2-ethyl]-2-acetoxyimino-2-(2-tetrahydronaphthyl)-acetamide] | – | – | efficacy compared to the untreated control (Phytophthora infestans; application rate of 50 g/ha): 95% |
| COc1ccc(CCNC(=O)C(=NOC(=O)OC(C)C)c2ccc3c(c2)CCCC3)cc1OC [Example I-4] | 3.55 | 3.84 | – |
